From patent publication US20190031665A1, “DERIVATIVES OF PYRROLOIMIDAZOLE OR ANALOGUES THEREOF WHICH ARE USEFUL FOR THE TREATMENT OF INTER ALIA CANCER” (EMCURE PHARMACEUTICALS LIMITED, priority 2016, published 2019)

Key:
[1] = target: T1, human tryptophan 2,3-dioxygenase (hTDO) (Homo sapiens, UniProt P48775); test: In-vitro human tryptophan 2,3-dioxygenase (TDO) enzyme assay; format: biochemical; settings: for inhibition at 1 µM: hTDO enzyme at 1.0 μM concentration; for inhibition at 10 µM: hTDO enzyme at 10.0 μM concentration
T1 construct: His tag (N); purchased BPS Bioscience, San Diego, Calif., USA; host or cells: E. coli
Procedure: (§1) In the in-vitro human tryptophan 2,3-dioxygenase (hTDO) enzyme assay for screening inhibitor compounds, hTDO with an N-terminal histidine tag expressed and purified from E. coli (BPS Bioscience, San Diego, Calif., USA) was used. All other materials were procured from Sigma-Aldrich, St. Louis, Mo., USA.
The assay monitoring method for the conversion of L-tryptophan to N-formylkynurenine by hTDO was carried out as follows. hTDO (125 ng) was incubated in the presence of 200 μM L-tryptophan, 100 mM sodium phosphate buffer (pH 7.0), 0.01% Tween-20 and 100 μM ascorbic acid at about 37° C. for about 60 minutes. The reaction was terminated with 200 mM piperidine (PIP) and further incubated at about 65° C. for about 20 minutes to convert N-formylkynurenine (NFK) to NFK-PIP. The reaction mixture was then incubated at room temperature for about 75 minutes. The fluorescence intensity was read in a fluorescence microplate reader at an excitation wavelength of 400 nm and emission wavelength of 500 nm. Percent inhibition at each concentration of test compounds was determined by estimating the decrease in NFK-PIP. Data were analyzed using nonlinear regression to generate IC50 values using Graph Pad Prism® 6.

[2] = target: T2, human indoleamine 2,3-dioxygenase 1 (hIDO1) (Homo sapiens, UniProt P14902); test: In-vitro human indoleamine 2,3-dioxygenase 1 (IDO1) enzyme assay; format: biochemical; settings: for IC50: hIDO1 enzyme; for inhibition at 1 µM: hIDO1 enzyme at 1.0 μM concentration; for inhibition at 10 µM: hIDO1 enzyme at 10.0 μM concentration
T2 construct: His tag (N); purchased BPS Bioscience, San Diego, Calif., USA; host or cells: E. coli
Procedure: as §1, with “In-vitro human indoleamine 2,3-dioxygenase 1 (IDO1) enzyme assay: In” for “In”, “indoleamine” for “tryptophan”, “1 (hIDO1)” for “(hTDO)”, “hIDO1” for “hTDO”
The assay method for monitoring the conversion of L-tryptophan to N-formylkynurenine by hlDO1 was carried out as follows. hlDO1 (50 ng) was incubated with tryptophan (80 μM) in the presence of ascorbic acid (10 mM), methylene blue (10 μM), catalase (100 μg/ml) and 0.01% Tween-20 in sodium phosphate buffer (50 mM; pH 6.5) at 37° C. for 60 min. The reaction was terminated with 200 mM piperidine (PIP) and further incubated at about 65° C. for about 20 minutes to convert N-formylkynurenine (NFK) to NFK-PIP. The reaction mixture was then incubated at room temperature for about 1 hour. The fluorescence intensity was read in a fluorescence microplate reader at an excitation wavelength of 400 nm and emission wavelength of 500 nm. Percent inhibition at each concentration of test compounds was determined by estimating the decrease in NFK-PIP. Data were analyzed using nonlinear regression to generate IC50 values using Graph Pad Prism® 6.

T1 sequence (P48775 whole entry): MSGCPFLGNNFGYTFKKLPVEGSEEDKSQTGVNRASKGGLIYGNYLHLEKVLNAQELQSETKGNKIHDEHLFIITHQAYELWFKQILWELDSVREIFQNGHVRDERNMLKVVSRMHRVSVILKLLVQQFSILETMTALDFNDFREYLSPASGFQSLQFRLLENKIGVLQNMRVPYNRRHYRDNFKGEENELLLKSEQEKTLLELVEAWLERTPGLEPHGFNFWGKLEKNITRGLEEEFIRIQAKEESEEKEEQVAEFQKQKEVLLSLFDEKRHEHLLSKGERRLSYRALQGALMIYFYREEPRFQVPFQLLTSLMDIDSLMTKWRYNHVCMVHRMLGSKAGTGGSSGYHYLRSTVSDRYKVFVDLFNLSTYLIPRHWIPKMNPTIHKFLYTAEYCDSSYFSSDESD
T2 sequence (P14902 whole entry): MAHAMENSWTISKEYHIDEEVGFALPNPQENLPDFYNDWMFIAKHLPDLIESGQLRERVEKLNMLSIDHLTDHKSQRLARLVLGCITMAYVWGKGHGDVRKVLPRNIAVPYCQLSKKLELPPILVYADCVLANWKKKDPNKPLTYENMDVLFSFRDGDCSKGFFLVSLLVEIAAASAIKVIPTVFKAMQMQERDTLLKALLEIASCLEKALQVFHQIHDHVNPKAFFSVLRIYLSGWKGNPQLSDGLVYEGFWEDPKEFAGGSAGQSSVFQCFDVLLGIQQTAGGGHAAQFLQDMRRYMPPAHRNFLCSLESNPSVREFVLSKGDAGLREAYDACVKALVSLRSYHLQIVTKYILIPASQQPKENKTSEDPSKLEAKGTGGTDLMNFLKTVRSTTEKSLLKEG

Row | SMILES | inhibition at 1 µM [1] | IC50 [2] | inhibition at 1 µM [2] | inhibition at 10 µM [2] | inhibition at 10 µM [1]
1 | OC(CC1C2=C(CCCC2)c2cncn21)c1cccc(OCc2ccccc2)c1 (stereo not drawn) [Example 8] |  |  |  | ≤ 50% | ≥ 50%
2 | Cc1ccc(S(=O)(=O)N2CCC3=C(C2)C(CC(=O)c2ccccc2)n2cncc23)cc1 (stereo not drawn) [Example 5] |  |  |  | ≤ 50% | 
3 | CC1=C(c2ccccc2)C(CC(=O)c2ccc(OCc3ccccc3)cc2)n2cncc21 (stereo not drawn) [Example 75, 1-(4-(benzyloxy)phenyl)-2-(7-methyl-6-phenyl-5H-pyrrolo[1,2-c]imidazol-5-yl)ethan-1-one] | ≥ 50% | < 0.5 µM | ≥ 50% | ≥ 50% | 
4 | O=C(CC1C2=C(CCCC2)c2cncn21)c1cccc(Cl)c1 (stereo not drawn) [Example 3] |  |  |  | ≤ 50% | ≥ 50%
5 | CC1=C(c2ccccc2)C(CC(=O)C2CCC(c3ccccc3)CC2)n2cncc21 (stereo not drawn) [Example 136] | ≥ 50% |  | ≥ 50% | ≥ 50% | 
6 | CC1=C(c2cccc(F)c2)C(CC(=O)c2ccccc2)n2cncc21 (stereo not drawn) [Example 15, 2-[6-(3-Fluoro-phenyl)-7-methyl-5H-pyrrolo[1,2-c]imidazol-5-yl]-1-phenyl-ethanone] |  |  | ≤ 50% | ≥ 50% | ≥ 50%
7 | COc1cccc(C(=O)CC2C(c3ccccc3)=C(C)c3cncn32)c1 (stereo not drawn) [Example 33, 1-(3-Methoxy-phenyl)-2-(7-methyl-6-phenyl-5H-pyrrolo[1,2-c]imidazol-5-yl)-ethanone] |  |  | ≤ 50% | ≥ 50% | ≥ 50%
8 | CC1=C(c2ccccc2)C(CC(=O)C2CCCN2S(=O)(=O)c2ccc(C)cc2)n2cncc21 (stereo not drawn) [Example 113] | ≥ 50% |  | ≤ 50% | ≥ 50% | 
9 | O=C(CC1C2=C(CCCC2)c2cncn21)c1cc(F)ccc1F (stereo not drawn) [Example 9] |  |  |  | ≤ 50% | ≥ 50%
10 | CC1=C(c2ccccc2)C(CC(=O)c2ccc(F)c(Cl)c2)n2cncc21 (stereo not drawn) [Example 39, 1-(3-chloro-4-fluorophenyl)-2-(7-methyl-6-phenyl-5H-pyrrolo[1,2-c]imidazol-5-yl)ethan-1-one] | ≥ 50% | < 0.5 µM | ≥ 50% | ≥ 50% | 
11 | CC1=C(c2ccccc2)C(CC(=O)c2ccc(-c3ccc(F)cc3)cc2)n2cncc21 (stereo not drawn) [Example 63] | ≥ 50% |  | ≥ 50% | ≥ 50% | 
12 | COc1ccccc1C(=O)CC1C(c2ccccc2)=C(C)c2cncn21 (stereo not drawn) [Example 32, 1-(2-methoxyphenyl)-2-(7-methyl-6-phenyl-5H-pyrrolo[1,2-c]imidazol-5-yl)ethan-1-one] |  |  | ≤ 50% | ≤ 50% | ≥ 50%
13 | CC1=C(c2ccccc2F)C(CC(=O)C2CCC(O)CC2)n2cncc21 (single isomer, unassigned) [Example 98] |  |  |  | ≥ 50% | 
14 | CC1=C(c2ccccc2)c2cncn2C1CC(=O)c1ccccc1 (stereo not drawn) [Example 21] |  |  | ≤ 50% | ≤ 50% | 
15 | O=C(CC1C=C(c2ccccc2)c2cncn21)c1ccccc1 (stereo not drawn) [Example 13] |  |  |  | ≤ 50% | 
16 | OC(CC1C=C(c2ccccc2)c2cncn21)c1ccccc1 (stereo not drawn) [Example 14] |  |  |  | ≤ 50% | 
17 | Cc1ccc(S(=O)(=O)N2CCC3=C(C2)C(CC(O)c2ccccc2)n2cncc23)cc1 (stereo not drawn) [Example 6] |  |  |  | ≤ 50% | 
18 | CCCNC(=O)CC1C(c2ccccc2)=C(C)c2cncn21 (stereo not drawn) [Example 172, 2-(7-Methyl-6-phenyl-5H-pyrrolo[1,2-c]imidazol-5-yl)-N-propylacetamide] |  |  | ≤ 50% | ≤ 50% | 

Next, values leading:

Row | inhibition at 1 µM [1] | IC50 [2] | inhibition at 1 µM [2] | inhibition at 10 µM [2] | inhibition at 10 µM [1] | SMILES
19 | ≥ 50% | < 0.5 µM | ≥ 50% | ≥ 50% |  | CC1=C(c2ccccc2)C(C[C@H](O)C2CCC(C(=O)Nc3ccncc3)CC2)n2cncc21 (stereo partly drawn) [Example 119]
20 | ≥ 50% | < 0.5 µM | ≥ 50% | ≥ 50% |  | CC1=C(c2ccccc2)C(CC(O)C2CCN(C(=O)OCc3ccccc3)CC2)n2cncc21 (stereo not drawn) [Example 137, 4-[1-Hydroxy-2-(7-methyl-6-phenyl-5H-pyrrolo[1,2-c]imidazol-5-yl)-ethyl]-piperidine-1-carboxylic acid benzyl ester]
21 | ≤ 50% | < 0.5 µM | ≥ 50% | ≥ 50% |  | CCOC(=O)N1CCC(C(O)CC2C(c3ccccc3)=C(C)c3cncn32)CC1 (stereo not drawn) [Example 148]
22 | ≤ 50% |  | ≤ 50% | ≥ 50% |  | CC1=C(c2ccccc2)C(CC(=O)c2ccc(C3CCCCC3)cc2)n2cncc21 (stereo not drawn) [Example 73]
23 | ≤ 50% |  | ≤ 50% | ≥ 50% |  | CC1=C(c2ccccc2)C(CC(O)C2CCN(C(=O)c3ccnc(C)c3)CC2)n2cncc21 (stereo not drawn) [Example 164, {4-[1-Hydroxy-2-(7-methyl-6-phenyl-5H-pyrrolo[1,2-c]imidazol-5-yl)-ethyl]-piperidin-1-yl}-(2-methyl-pyridin-4-yl)-methanone]
24 | ≤ 50% |  | ≤ 50% | ≤ 50% |  | CC1=C(c2ccccc2)C(CC(=O)N2CCC(O)CC2)n2cncc21 (stereo not drawn) [Compound 175, 1-(4-Hydroxypiperidin-1-yl)-2-(7-methyl-6-phenyl-5H-pyrrolo[1,2-c]imidazol-5-yl)ethan-1-one]
25 | ≥ 50% | < 0.5 µM | ≥ 50% | ≥ 50% |  | CC1=C(c2ccccc2)C(C[C@H](O)C2CCC(C(=O)Nc3ccccc3)CC2)n2cncc21 (stereo partly drawn) [Example 112]
26 | ≥ 50% |  | ≤ 50% | ≥ 50% |  | CC1=C(c2ccccc2)C(CC(=O)C2CCC(=NO)CC2)n2cncc21 (stereo not drawn) [Example 177, 4-[2-(7-Methyl-6-phenyl-5H-pyrrolo[1,2-c]imidazol-5-yl)-acetyl]-cyclohexanone oxime]
27 | ≥ 50% | < 0.5 µM | ≥ 50% | ≥ 50% |  | CC1=C(c2ccccc2)C(CC(O)C2CCN(S(=O)(=O)C3CCCCC3)CC2)n2cncc21 (stereo not drawn) [Example 163, 1-(1-Cyclohexanesulfonyl-piperidin-4-yl)-2-(7-methyl-6-phenyl-5H-pyrrolo[1,2-c]imidazol-5-yl)-ethanol]
28 | ≤ 50% |  | ≤ 50% | ≤ 50% |  | OC(CC1C(c2ccccc2)=C(c2ccccc2)c2cncn21)C1CCCCC1 (stereo not drawn) [Example 103]
29 | ≤ 50% |  | ≥ 50% | ≥ 50% |  | CC1=C(c2ccccc2)C(C[C@H](O)C2CCC(C(=O)N3CCC(O)CC3)CC2)n2cncc21 (stereo partly drawn) [Example 125]
30 | ≤ 50% |  | ≤ 50% | ≤ 50% |  | CC1=C(c2ccccc2)C(CC(O)C2CCN(Cc3ccccc3)CC2)n2cncc21 (stereo not drawn) [Example 141]
31 | ≥ 50% |  | ≤ 50% | ≥ 50% |  | CC1=C(c2ccccc2)C(CC(=O)C2CCOCC2)n2cncc21 (stereo not drawn) [Example 100]
32 | ≥ 50% |  | ≤ 50% | ≥ 50% |  | CC1=C(c2ccccc2)C(CC(=O)c2ccc(N3CCCCC3)cc2)n2cncc21 (stereo not drawn) [Example 50, 2-(7-methyl-6-phenyl-5H-pyrrolo[1,2-c]imidazol-5-yl)-1-(4-(piperidin-1-yl)phenyl)ethan-1-one]
33 | ≤ 50% | < 0.5 µM | ≥ 50% | ≥ 50% |  | CC1=C(c2ccccc2)C(CC(O)C2CCN(C(=O)C3CCCCC3)CC2)n2cncc21 (stereo not drawn) [Example 149]
34 | ≤ 50% |  | ≤ 50% | ≥ 50% |  | CC1=C(c2ccccc2)C(CC(=O)C2CCN(C(=O)C3CCCCC3)CC2)n2cncc21 (stereo not drawn) [Example 147]
35 |  | > 0.5 µM |  | ≥ 50% |  | CC1=C(c2ccccc2)C(CC(O)C2CCC(O)CC2)n2cncc21 (stereo not drawn) [Example 111]
36 |  | < 0.5 µM |  |  |  | CC1=C(c2ccccc2)C(CC(O)C2CCC(O)CC2)n2cncc21 (single isomer, unassigned) [Example 122]
37 |  | > 0.5 µM |  |  |  | CC1=C(c2ccccc2)C(CC(O)C2CCN(C(=O)c3ccccn3)CC2)n2cncc21 (single isomer, unassigned) [Example 161]
